Data from patent US9896423B2, “Deuterium substituted 1-[2-(2,4-dimethyl-phenylsulfanyl)-phenyl]piperazine compound or derivatives thereof, and pharmaceutical composition and use thereof” (Jiangsu Jibeier Pharmaceutical Co. Ltd., priority 2014, dated 2018).
Values joined by “and” are separate entries in the source; they are usually repeats but may differ in a detail not shown here. Equal entries are not always repeated. Structures can show the parent of a compound that is named as a salt. Where two headings read alike, the source gives them in different places.

Experiments:
Male ICR mice = assay: Mice swimming test; assay type: in vivo; conditions: for effect on length of time that the mice stopped swimming vs blank control: two successive weeks; for Duration without Movement within the Last 4 min of the Whole 6 min: mice, gavage once a day for 14 days, n = 10, x ± s
Excerpt: The following method is used for testing the antidepression effect of the compound of the present application. ICR mice or SD rats, gavaged for two successive weeks, were subjected to mice swimming test, mice tail suspension test and rats swimming test. See below for details of the tests and results.
Male ICR mice weighing 18 g to 20 g were used. They were fed on sterilized standard feed.
The compound administered in the test was 1-{2-[2,4-bis(trideuteriomethyl)phenylsulfanyl]phenyl}piperazine hydrobromic acid salt (XX for short). Vortioxetine (YY for short) was used as a control sample. Venlafaxine HCl (from Wyeth, USA) was used as a positive control.
Vortioxetine (15 mg) was combined with 10% hydroxypropyl-β-cyclodextrin to form a solution of 100 mL and was administered at daily dose of 3 mg/kg. 1-{2-[2,4-bis(trideuteriomethyl)phenylsulfanyl]phenyl}piperazine hydrobromic acid salt (15 mg and 7.5 mg) was combined with 10% hydroxypropyl-β-cyclodextrin to form two solutions of 100 mL and was administered at daily doses of 3 mg/kg and 1.5 mg/kg, respectively. Venlafaxine HCl (75 mg) was combined with 0.5% CMC-Na to form a solution of 100 mL and was administered at daily dose of […].
A recording and analysis system for small-animal behavior (Noldus) was used.
All the eighty mice were subjected to prescreening one day before the administration. The mice, fasted for 4 hours were put in a round glass tank (ø 14 cm×h 20 cm, with water of 10 cm depth and at a temperature of 25° C.) to swim. […] The whole swimming course was recorded by the video and the data were collected and analyzed automatically by Noldus software.
The forty qualified mice were divided into 4 groups, each of which had 10 mice, according to the Excel random grouping.
The medicaments were administered to each group by gavage with the amount of 0.2 ml per 10 g of body weight, once a day for 14 successive days. One hour later after the last oral administration, the mice were allowed to swim for 6 min. The video recorded the whole swimming course, and the Noldus software automatically collected and analyzed the data.
The data was given as “average±standard deviation” (x±s). One-way analysis of variance (one-way ANOVA) was used for data difference statistics. Differences among the groups were determined by P<0.05.

[1] = Pharmacokinetic test in rats, gavage administration; assay type: in vivo, SD rats
Description: The preferred compound of the present disclosure was assessed in rats for its pharmacokinetic profile.
SD rats, male and female, weighing 150 to 250 g
Mobile phase: 10 mM ammonium formate aqueous solution:methanol=15:85
The ionization source was electrospray ionization source. The detection mode was positive mode. Multiple reaction monitoring (MRM) was used as the scanning mode. The ion reaction for the quantitative analysis was the following: m/z was 305.2\150.0 for XX, and 256.1\167.1 for diphenhydramine (the internal standard).
XX or YY was orally administered with single dose of 20 mg/kg to six SD rats, one half of which were male and the other half was female. XX or YY was dissolved in 10% hydroxypropyl-β-cyclodextrin. […]
After the blood collection, the tubes were immediately gently turned upside down at least five times to ensure sufficient mixing, and placed on ice. Heparin was added for anticoagulation. The samples were centrifuged at 8000 rpm for 5 min to separate serum from erythrocyte. The serum was transferred with a pipettor to 2 mL polypropylene (PP) tubes, which were marked with the name of the compound and the time points, and stored in a refrigerator at −40° C. before LC-MS analysis. Samples with high concentrations were diluted with rat blank plasma.
2.5 μL of Meth-H2O and 5 μL of the internal standard solution (20 ng/mL, IS) were added to 50 μL of the plasma. Subsequently, 150 μL of methanol was added to the mixture to precipitate protein and the samples were then centrifuged at 13000 rpm for 5 min. The upper organic phase was taken out, filtrated with a 0.22 μM microporous membrane, and 2 μL of the sample was injected for the LC-MS analysis.

## [2H]C([2H])([2H])c1ccc(Sc2ccccc2N2CCNCC2)c(C([2H])([2H])[2H])c1 [XX, 1-{2-[2,4-bis(trideuteriomethyl)phenylsulfanyl]phenyl}piperazine hydrobromic acid salt]
Male ICR mice; 1.5 mg/kg gavage
  effect on length of time that the mice stopped swimming vs blank control: markedly shortened
Male ICR mice; 3 mg/kg gavage
  effect on length of time that the mice stopped swimming vs blank control: markedly shortened
Male ICR mice; 1.5 mg/kg
  Duration without Movement within the Last 4 min of the Whole 6 min: 173.4 ± 36.1 s
Male ICR mice; 3 mg/kg
  Duration without Movement within the Last 4 min of the Whole 6 min: 176.3 ± 37.5 s
[1]; 20 mg/kg oral, 10 min (Table 5: 0.167 h) after administration, individual rats 1-6
  Concentrations in Plasma of Rats after Oral Administration: 10.6 ng/mL and 7 ng/mL and 7.88 ng/mL and 24.8 ng/mL and 15.6 ng/mL and 16.2 ng/mL
[1]; 20 mg/kg oral, 1 h, individual rats 1-6
  Concentrations in Plasma of Rats after Oral Administration: 68.4 ng/mL and 83.6 ng/mL and 55.2 ng/mL and 107.6 ng/mL and 144 ng/mL and 115.8 ng/mL
[1]; 20 mg/kg oral, 1.5 h, individual rats 1-6
  Concentrations in Plasma of Rats after Oral Administration: 91.6 ng/mL and 77.4 ng/mL and 120.8 ng/mL and 142.8 ng/mL and 109.6 ng/mL
[1]; 20 mg/kg oral, 2 h, individual rats 1-6
  Concentrations in Plasma of Rats after Oral Administration: 86.6 ng/mL and 77.8 ng/mL and 118.4 ng/mL and 119.6 ng/mL and 108 ng/mL
[1]; 20 mg/kg oral, 3 h, individual rats 1-6
  Concentrations in Plasma of Rats after Oral Administration: 65.8 ng/mL and 53.8 ng/mL and 85.8 ng/mL and 77.6 ng/mL and 71.2 ng/mL
[1]; 20 mg/kg oral, 4 h, individual rats 1-6
  Concentrations in Plasma of Rats after Oral Administration: 60.8 ng/mL and 56 ng/mL and 61.2 ng/mL and 85.6 ng/mL and 63.4 ng/mL
[1]; 20 mg/kg oral, 6 h, individual rats 1-6
  Concentrations in Plasma of Rats after Oral Administration: 48.7 ng/mL and 36.8 ng/mL and 42.8 ng/mL and 54.6 ng/mL and 35.5 ng/mL
[1]; 20 mg/kg oral, 8 h, individual rats 1-6
  Concentrations in Plasma of Rats after Oral Administration: 22.5 ng/mL and 20.9 ng/mL and 31.7 ng/mL and 25.1 ng/mL and 18.9 ng/mL
[1]; 20 mg/kg oral, 10 h, individual rats 1-6
  Concentrations in Plasma of Rats after Oral Administration: 17.9 ng/mL and 15.5 ng/mL and 20.3 ng/mL and 14.9 ng/mL and 13.5 ng/mL
[1]; 20 mg/kg oral, 12 h, individual rats 1-6
  Concentrations in Plasma of Rats after Oral Administration: 8.22 ng/mL and 6.78 ng/mL and 11.3 ng/mL and 7.08 ng/mL and 7.2 ng/mL
[1]; 20 mg/kg oral, 14 h, individual rats 1-6
  Concentrations in Plasma of Rats after Oral Administration: 4.01 ng/mL and 3.56 ng/mL and 7.32 ng/mL and 4.43 ng/mL and 3.11 ng/mL and 3.19 ng/mL
[1]; 20 mg/kg oral, 24 h, individual rats 1-6
  Concentrations in Plasma of Rats after Oral Administration: 1.46 ng/mL and 0.571 ng/mL and 0.368 ng/mL and 1.32 ng/mL and 0.365 ng/mL and 0.389 ng/mL
[1]; both sexes, SD, rat, plasma, po, 20 mg/kg, rats, oral 20 mg/kg vs iv 2 mg/kg, individual rats 1-6, read-out: F %
  bioavailability: 11%
[1]; both sexes, SD, rat, plasma, po, 20 mg/kg, rats, oral 20 mg/kg, individual rats 1-6, read-out: AUC0-1
  AUC(0-t): 524 ng·h/mL
[1]; both sexes, SD, rat, plasma, po, 20 mg/kg, rats, oral 20 mg/kg, individual rats 1-6, read-out: AUC0-∞
  AUC(0-inf): 532 ng·h/mL
[1]; both sexes, SD, rat, plasma, po, 20 mg/kg, rats, oral 20 mg/kg, individual rats 1-6, read-out: Cmax
  Cmax: 78.6 ng/mL
[1]; both sexes, SD, rat, plasma, po, 20 mg/kg, rats, oral 20 mg/kg, individual rats 1-6, read-out: MRT0-∞
  MRT inf: 5.62 h
[1]; both sexes, SD, rat, plasma, po, 20 mg/kg, rats, oral 20 mg/kg, n = 6, read-out: AUC0-1, Mean ± SD
  AUC(0-t): 583 ± 82.7 ng·h/mL
[1]; both sexes, SD, rat, plasma, po, 20 mg/kg, rats, oral 20 mg/kg, n = 6, read-out: AUC0-∞, Mean ± SD
  AUC(0-inf): 586 ± 82.8 ng·h/mL
[1]; both sexes, SD, rat, plasma, po, 20 mg/kg, rats, oral 20 mg/kg, n = 6, read-out: Cmax, Mean ± SD
  Cmax: 105 ± 26.5 ng/mL
[1]; both sexes, SD, rat, plasma, po, 20 mg/kg, rats, oral 20 mg/kg, n = 6, read-out: MRT0-∞, Mean ± SD
  MRT inf: 4.93 ± 0.58 h
[1]; both sexes, SD, rat, plasma, po, 20 mg/kg, rats, oral 20 mg/kg, n = 6, read-out: t1/2, Mean ± SD (converted)
  half-life: 175 ± 48 min
[1]; both sexes, Sprague-Dawley, rat, plasma, oral, 20 mg/kg, 20 mg/kg oral, 10 min (Table 5: 0.167 h), mean of 6 rats, read-out: Concentrations in Plasma of Rats after Oral Administration, Mean ± SD
  concentration at 10 min: 13.7 ± 6.65 ng/mL
[1]; both sexes, Sprague-Dawley, rat, plasma, oral, 20 mg/kg, 20 mg/kg oral, 0.5 h, mean of 6 rats, read-out: Concentrations in Plasma of Rats after Oral Administration, Mean ± SD
  concentration at 0.5 h: 62.9 ± 19.6 ng/mL
